Calls of active or inactive are those of the source.
What was measured:
[1] = target: T1, Orexin/Hypocretin receptor type 1 (Homo sapiens, UniProt O43613); experiment: Homogeneous Time Resolved Fluorescence (HTRF)-based cell-based high throughput dose response assay for antagonists of the orexin 1 receptor (OX1R; HCRTR1). [Related pubchem assays (depositor defined):AID434989, AID435008, AID463079, AID485270, AID492963, AID492964, AID492965, AID493232, AID504717, AID504718]; type: functional
T1 sequence (O43613 whole entry): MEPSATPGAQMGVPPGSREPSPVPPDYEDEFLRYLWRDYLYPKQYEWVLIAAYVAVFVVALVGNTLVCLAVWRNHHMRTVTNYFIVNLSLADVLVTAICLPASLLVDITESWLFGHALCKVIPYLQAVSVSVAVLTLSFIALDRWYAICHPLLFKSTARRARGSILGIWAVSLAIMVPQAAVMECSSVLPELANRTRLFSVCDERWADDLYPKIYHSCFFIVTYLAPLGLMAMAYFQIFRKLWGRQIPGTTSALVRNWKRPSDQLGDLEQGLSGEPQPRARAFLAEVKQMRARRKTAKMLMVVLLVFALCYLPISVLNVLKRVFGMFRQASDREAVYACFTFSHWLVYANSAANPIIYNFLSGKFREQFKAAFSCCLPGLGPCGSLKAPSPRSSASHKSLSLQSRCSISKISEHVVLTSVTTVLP

CHO-K1 = experiment: (§1) Counterscreen for antagonists of the orexin 1 receptor (OX1R; HCRTR1): Homogeneous time resolved fluorescence (HTRF)-based cell-based dose response assay to identify antagonists of the parental CHO-K1 cell line. [Related pubchem assays (depositor defined):AID434989, AID435008, AID463079, AID485270, AID492963, AID492964, AID492965, AID493232, AID504699, AID504701]; type: functional; settings: Cricetulus griseus
[2] = as §1, with “Fluorescence-based” for “Homogeneous time resolved fluorescence (HTRF)-based”, “cell-based high throughput” for “cell-based”, “CHO” for “CHO-K1”; type: functional
[3] = target: T1, Orexin/Hypocretin receptor type 1; experiment: Fluorescence-based cell-based high throughput dose response assay for antagonists of the orexin 1 receptor (OX1R; HCRTR1). [Related pubchem assays (depositor defined):AID434989, AID435008, AID463079, AID485270, AID492963, AID492964, AID492965, AID493232, AID504717, AID504718]; type: functional
[4] = target: T2, Tyrosine-protein phosphatase non-receptor type 22 (Homo sapiens, UniProt Q9Y2R2); type: functional
T2 sequence (Q9Y2R2 whole entry): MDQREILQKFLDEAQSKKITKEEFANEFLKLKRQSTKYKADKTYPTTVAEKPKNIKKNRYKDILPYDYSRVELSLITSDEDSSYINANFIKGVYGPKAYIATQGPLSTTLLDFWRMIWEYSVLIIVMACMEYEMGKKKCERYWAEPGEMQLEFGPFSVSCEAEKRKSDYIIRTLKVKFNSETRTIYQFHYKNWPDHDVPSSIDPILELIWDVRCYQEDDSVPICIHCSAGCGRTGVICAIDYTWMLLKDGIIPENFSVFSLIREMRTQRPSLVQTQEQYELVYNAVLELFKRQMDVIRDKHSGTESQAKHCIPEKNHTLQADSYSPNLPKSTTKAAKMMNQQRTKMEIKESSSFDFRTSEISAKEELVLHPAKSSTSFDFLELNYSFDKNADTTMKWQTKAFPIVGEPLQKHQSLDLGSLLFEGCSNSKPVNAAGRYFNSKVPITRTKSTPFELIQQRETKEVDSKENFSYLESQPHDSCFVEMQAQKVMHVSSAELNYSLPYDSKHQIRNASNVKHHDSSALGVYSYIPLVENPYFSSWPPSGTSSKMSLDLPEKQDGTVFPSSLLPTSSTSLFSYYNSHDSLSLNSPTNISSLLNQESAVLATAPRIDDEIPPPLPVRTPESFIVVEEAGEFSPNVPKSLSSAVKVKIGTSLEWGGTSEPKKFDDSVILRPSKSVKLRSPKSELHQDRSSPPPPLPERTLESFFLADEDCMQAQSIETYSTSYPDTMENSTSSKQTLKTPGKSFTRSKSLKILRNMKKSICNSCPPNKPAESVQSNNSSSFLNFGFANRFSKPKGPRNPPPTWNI

[5] = target: T2, Tyrosine-protein phosphatase non-receptor type 22; type: functional; remark: listed apart in the source
[6] = target: T3, Tyrosine-protein phosphatase non-receptor type 7 (Homo sapiens, UniProt P35236); type: functional
T3 sequence (P35236 whole entry): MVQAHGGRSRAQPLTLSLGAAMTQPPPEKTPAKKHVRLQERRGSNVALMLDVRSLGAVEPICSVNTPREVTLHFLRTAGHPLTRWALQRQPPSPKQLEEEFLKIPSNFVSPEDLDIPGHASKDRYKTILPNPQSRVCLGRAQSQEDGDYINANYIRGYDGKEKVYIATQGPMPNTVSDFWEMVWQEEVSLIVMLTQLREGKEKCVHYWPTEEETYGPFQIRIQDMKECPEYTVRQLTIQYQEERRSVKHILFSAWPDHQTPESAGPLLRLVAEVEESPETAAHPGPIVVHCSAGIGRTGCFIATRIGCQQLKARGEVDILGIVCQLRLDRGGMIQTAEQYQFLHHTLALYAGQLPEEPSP

[7] = test system: Streptococcus sp. 'group A'; experiment: Streptococcus pyogenes SK(-)GAS viability under kanamycin – luminescence, BacTiterGlo, confirmation, counter-screen for streptokinase expression inhibitor project, dose response (AID 1900); type: functional, organism-based
[8] = Luminescence Cell-Based Dose Confirmation HTS to Identify Activators of 5'UTR Stem-Loop Driven Alpha-Synuclein mRNA Translation in H4 Neuroglioblastoma Cells. [Related pubchem assays: 1829 (Project Summary), 1814 (Primary HTS)]; type: functional
[9] = Counterscreen for AddAB inhibitors: absorbance-based bacterial cell-based high throughput dose response assay for inhibitors of bacterial viability. [Related pubchem assays (depositor defined):AID435030, AID449728, AID449731, AID488942, AID488955, AID488956]; type: functional
[10] = Trypanosoma cruzi growth suppression in host cells – NIH3T3 host cells, beta-gal luminescence, confirmation (AID 2044); type: functional, cell-based;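 note: intracellular parasites grown in NIH/3T3 mouse fibroblasts as host cells; luminescent beta-galactosidase reporter signal from transgenic T. cruzi replicating inside host cells; inhibitors lower the luminescence signal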
[11] = Luminescence Cell-Based Dose Response HTS to Identify Activators of Luciferase Translation or Activity in H4 […] Cells. [Related pubchem assays: 1829 (Project Summary), 1814 (Primary HTS)]; type: functional
[12] = NIH3T3 cell viability loss – ATP luminescence, mouse fibroblasts, counter-screen, dose response (AID 2010); type: functional, cell-based;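 note: cells exposed to compound for about 90 hours before reading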
H4 = experiment: Luminescence Cell-Based Dose Response HTS to Identify Activators of 5'UTR Stem-Loop Driven Prion Protein mRNA Translation in H4 Neuroglioblastoma Cells. [Related pubchem assays: 1829 (Project Summary), 1814 (Primary HTS)]; type: functional; settings: Homo sapiens
Streptococcus = experiment: GAS UMAA2166 growth inhibition – luminescence, BacTiterGlo, counter-screen for streptokinase expression inhibitor project, dose response (AID 1915); type: functional, organism-based;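 note: potency for reduction of bacterial viability or growth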
Exodeoxyribonuclease V = Exodeoxyribonuclease V (Escherichia coli (strain K12), UniProt P04993+P07648+P08394); experiment: RecBCD inhibition via phage-restricted bacterial growth – absorbance, V66 E. coli, mutant T4 phage, counter-screen for AddAB inhibitor project, dose response (AID 492957); type: functional, cell-based, Escherichia coli str. K-12 substr. MG1655
INS1 = experiment: INS-1E survival protection against cytokine death – cell-based, luminescence, retest, dose response (AID 449756); type: functional; settings: Rattus norvegicus;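 note: cell death triggered by IL-1 beta plus TNF-alpha plus IFN-gamma mixture; protective hits raise ATP signal compared with cytokine alone wells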
[13] = loss of viability in HepG2 cells – cell-based, CellTiter-Glo, cherry-picked, cytotoxicity control for Shn3 inhibitor project, dose response (AID 624134); type: functional
[14] = HEK-293T viability loss, compound-treated – cell-based, uHTS hits, cytotoxicity control for B/T-cell NF-kB inhibitor project, dose response (AID 489019); type: functional;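 note: IC50 reflects cytotoxicity as loss of cell viability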
[15] = Luminescence Cell-Based Dose Retest to Confirm Inhibitors of Cancer Stem Cells. [Related pubchem assays (depositor defined):AID2717, AID2721]; type: functional; settings: Homo sapiens
[16] = reduction of Shn3 3'UTR-driven luciferase in osteoblasts – cell-based, Clone20 osteoblasts, firefly luciferase, cherry-picked, dose response (AID 624132); type: functional;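 note: firefly luciferase luminescence from reporter carrying the Shn3 3'UTR in osteoblasts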
Jurkat = experiment: blockers of NF-kB activation in T cells – Jurkat, luciferase reporter, luminescence, B- and T-cell, dose response (AID 489004); type: functional, cell-based; settings: Homo sapiens;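 note: NF-kB luciferase reporter Jurkat cells stimulated with PMA plus ionomycin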
[17] = non-specific 3'UTR reporter inhibition in Clone20-Shn3RL – cell-based, Renilla luciferase, cherry-picked, counter-screen for Shn3 inhibitor project, dose response (AID 624133); type: functional
[18] = target: Luciferin 4-monooxygenase (Photinus pyralis, UniProt P08659); experiment: inhibition of purified Photinus pyralis luciferase – biochemical, luminescence, dose response (AID 1891)
[19] = Luminescence Cell-Based Dose Confirmation HTS to Identify Inhibitors of Platelet Dense Granule Release. [Related pubchem assays: 1663 (Primary HTS), 1678 (Summary of Project)]; type: functional

Chain of Luciferin 4-monooxygenase (P08659 whole entry): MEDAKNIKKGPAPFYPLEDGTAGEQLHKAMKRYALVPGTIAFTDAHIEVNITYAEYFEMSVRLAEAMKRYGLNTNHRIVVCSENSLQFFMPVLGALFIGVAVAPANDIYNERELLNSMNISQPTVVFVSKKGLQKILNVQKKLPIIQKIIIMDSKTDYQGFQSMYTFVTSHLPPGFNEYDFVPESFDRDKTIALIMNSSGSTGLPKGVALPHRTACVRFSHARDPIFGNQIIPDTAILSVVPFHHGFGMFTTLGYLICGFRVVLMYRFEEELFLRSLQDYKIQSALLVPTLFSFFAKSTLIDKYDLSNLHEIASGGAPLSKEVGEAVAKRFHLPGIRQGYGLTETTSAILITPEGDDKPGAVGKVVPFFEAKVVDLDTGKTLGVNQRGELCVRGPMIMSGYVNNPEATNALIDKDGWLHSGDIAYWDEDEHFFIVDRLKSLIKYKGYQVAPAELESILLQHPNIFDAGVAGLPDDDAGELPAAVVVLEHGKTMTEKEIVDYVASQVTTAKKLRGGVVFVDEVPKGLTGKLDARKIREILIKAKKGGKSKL
Chain of Exodeoxyribonuclease V (P04993 whole entry): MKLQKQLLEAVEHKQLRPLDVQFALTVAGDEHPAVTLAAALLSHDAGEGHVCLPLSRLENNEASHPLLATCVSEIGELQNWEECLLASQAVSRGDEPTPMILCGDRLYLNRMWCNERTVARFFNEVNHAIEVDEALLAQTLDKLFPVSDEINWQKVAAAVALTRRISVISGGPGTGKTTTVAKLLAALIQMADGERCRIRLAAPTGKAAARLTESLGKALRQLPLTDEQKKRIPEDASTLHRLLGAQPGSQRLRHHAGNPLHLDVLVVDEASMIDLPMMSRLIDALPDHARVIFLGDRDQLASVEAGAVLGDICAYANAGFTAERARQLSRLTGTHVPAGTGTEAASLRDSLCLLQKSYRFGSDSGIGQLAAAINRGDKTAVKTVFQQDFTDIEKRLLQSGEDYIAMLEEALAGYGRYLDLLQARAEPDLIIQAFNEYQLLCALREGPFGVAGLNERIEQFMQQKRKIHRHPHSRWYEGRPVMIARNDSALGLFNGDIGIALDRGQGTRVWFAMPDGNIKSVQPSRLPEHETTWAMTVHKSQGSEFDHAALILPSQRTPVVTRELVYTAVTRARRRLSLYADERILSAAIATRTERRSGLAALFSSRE
Chain of Exodeoxyribonuclease V (P07648 whole entry): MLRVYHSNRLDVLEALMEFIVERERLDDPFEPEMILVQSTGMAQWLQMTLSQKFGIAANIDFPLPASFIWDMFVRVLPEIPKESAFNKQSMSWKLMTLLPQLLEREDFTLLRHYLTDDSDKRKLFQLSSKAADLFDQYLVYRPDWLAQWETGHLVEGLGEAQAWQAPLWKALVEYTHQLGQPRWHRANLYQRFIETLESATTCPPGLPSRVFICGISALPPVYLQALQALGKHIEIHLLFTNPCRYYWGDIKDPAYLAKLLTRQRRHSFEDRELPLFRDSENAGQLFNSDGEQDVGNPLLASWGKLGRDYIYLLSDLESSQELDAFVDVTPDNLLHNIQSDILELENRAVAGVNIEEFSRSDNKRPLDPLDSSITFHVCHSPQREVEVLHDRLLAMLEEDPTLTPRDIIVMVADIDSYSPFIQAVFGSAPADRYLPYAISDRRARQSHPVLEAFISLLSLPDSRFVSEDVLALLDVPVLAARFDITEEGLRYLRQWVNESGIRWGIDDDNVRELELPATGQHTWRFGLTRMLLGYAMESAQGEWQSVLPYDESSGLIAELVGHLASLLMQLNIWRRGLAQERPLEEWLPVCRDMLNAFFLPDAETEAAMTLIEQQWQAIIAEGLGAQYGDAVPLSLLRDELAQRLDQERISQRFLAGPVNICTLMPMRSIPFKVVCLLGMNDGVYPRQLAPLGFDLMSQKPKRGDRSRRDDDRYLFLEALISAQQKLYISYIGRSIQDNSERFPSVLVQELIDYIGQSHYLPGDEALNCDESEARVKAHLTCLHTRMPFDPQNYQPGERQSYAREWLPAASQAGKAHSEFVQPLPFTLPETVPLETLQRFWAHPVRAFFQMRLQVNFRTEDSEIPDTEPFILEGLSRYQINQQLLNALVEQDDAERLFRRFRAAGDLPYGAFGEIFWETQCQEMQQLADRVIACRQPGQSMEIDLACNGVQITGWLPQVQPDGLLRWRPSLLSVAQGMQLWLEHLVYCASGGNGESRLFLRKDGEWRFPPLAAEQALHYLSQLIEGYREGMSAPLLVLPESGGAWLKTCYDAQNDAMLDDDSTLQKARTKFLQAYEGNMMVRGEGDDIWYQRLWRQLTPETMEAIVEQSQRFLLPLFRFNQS
Chain of Exodeoxyribonuclease V (P08394 whole entry): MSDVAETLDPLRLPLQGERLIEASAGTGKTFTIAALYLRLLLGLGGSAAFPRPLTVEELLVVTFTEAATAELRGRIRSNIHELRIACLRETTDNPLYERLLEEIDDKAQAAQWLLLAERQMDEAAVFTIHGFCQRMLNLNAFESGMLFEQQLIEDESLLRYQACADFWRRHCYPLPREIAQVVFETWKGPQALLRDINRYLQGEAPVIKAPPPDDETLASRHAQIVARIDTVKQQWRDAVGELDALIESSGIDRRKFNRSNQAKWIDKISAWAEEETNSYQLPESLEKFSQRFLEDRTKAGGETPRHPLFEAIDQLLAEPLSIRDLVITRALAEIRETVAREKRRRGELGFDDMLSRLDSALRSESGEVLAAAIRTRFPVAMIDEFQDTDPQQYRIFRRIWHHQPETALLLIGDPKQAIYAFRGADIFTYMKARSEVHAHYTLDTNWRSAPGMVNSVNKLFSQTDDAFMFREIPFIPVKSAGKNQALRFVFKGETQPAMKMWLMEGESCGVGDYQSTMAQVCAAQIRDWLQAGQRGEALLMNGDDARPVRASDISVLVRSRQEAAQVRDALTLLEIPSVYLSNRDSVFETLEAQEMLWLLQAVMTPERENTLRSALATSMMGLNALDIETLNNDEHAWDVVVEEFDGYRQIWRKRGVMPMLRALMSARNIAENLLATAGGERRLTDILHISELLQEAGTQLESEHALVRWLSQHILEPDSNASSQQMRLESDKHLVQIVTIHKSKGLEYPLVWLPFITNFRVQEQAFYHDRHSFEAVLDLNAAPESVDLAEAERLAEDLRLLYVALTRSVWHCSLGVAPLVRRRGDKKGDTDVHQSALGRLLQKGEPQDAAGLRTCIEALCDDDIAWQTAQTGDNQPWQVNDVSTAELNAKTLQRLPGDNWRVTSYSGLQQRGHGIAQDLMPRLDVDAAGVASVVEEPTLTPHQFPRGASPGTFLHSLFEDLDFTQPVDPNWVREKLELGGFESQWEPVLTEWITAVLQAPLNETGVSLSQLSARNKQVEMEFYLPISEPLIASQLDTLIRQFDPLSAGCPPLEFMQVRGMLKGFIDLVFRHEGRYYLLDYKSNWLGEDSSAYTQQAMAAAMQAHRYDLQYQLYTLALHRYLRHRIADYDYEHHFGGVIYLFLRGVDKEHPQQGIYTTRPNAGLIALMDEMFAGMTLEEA

COC(=O)C(C(C)=O)C1=C/C(=N\S(=O)(=O)c2ccc(C)cc2)c2ccccc2C1=O (stereo not given)
IC50 [1]: 0.414 µM (active) | IC50 (CHO-K1): 53.7 µM (inactive) | IC50 [2]: > 49.8 µM (inactive) | IC50 [3]: 2.83 µM (active)

Cc1cc(Cl)ccc1OCC(=O)OCC(=O)Nc1ccc(F)c([N+](=O)[O-])c1
IC50 [4]: > 79.4 µM (inactive) | IC50 [5]: > 79.4 µM (inactive) | IC50 [6]: > 79.4 µM (inactive)

CCOC(=O)C1=C(C)N=C2C(=C(O)c3ccccc32)C1c1ccc([N+](=O)[O-])o1 (stereo not given)
EC50 [7]: 2.81 µM (active) | EC50 [8]: > 120 µM (not active) | IC50 [9]: > 119 µM (inactive) | EC50 [10]: 1.43 µM (active) | EC50 [11]: > 120 µM (not active) | EC50 [12]: > 60 µM (not active) | EC50 (H4): > 120 µM (not active) | EC50 (Streptococcus): 29.9 µM (active) | IC50 (Exodeoxyribonuclease V): > 119 µM (inactive)

Cc1sc2ncnc(N3CCN(CCOc4ccc(Cl)cc4)CC3)c2c1C
AC50 (INS1): 2.74 µM (active) | AC50 [13]: 3.27 µM (active) | IC50 [14]: > 80 µM (inactive) | AC50 [15]: 5.5 µM (active) | EC50 [10]: 2.29 µM (active) | EC50 [12]: > 30 µM (not active) | AC50 [16]: 1.35 µM (active) | IC50 (Jurkat): 64.1 µM (inactive) | AC50 [17]: 6.27 µM (active)

COC(=O)C(C(=O)NCC1CCCO1)C1CCCCCC1 (stereo not given)
EC50 [18]: > 112 µM (not active) | IC50 [4]: > 79.4 µM (inactive) | EC50 [19]: > 112 µM (not active) | IC50 [5]: > 79.4 µM (inactive) | IC50 [6]: > 79.4 µM (inactive)

From ChEMBL document CHEMBL1201862, “PubChem BioAssay data set” (2004)
